From PubChem BioAssay AID1259411 (Chemical Carcinogenesis Research Information System (CCRIS), 2018)
Activity calls are given as the source filed them. The rule behind the calls is not given here.

System: rodent carcinogenicity bioassays, tumor incidence
Experiment: CCRIS carcinogenicity studies
Conditions: Species: RAT
Outline: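 NCI-built, expert-reviewed records of carcinogenicity and related test outcomes (mutagenicity, tumor promotion/inhibition) compiled from published and report sources, historical span 1985-2011, not updated.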

Measured: carcinogen call

CC(=O)Nc1ccc2c(c1)Cc1ccccc1-2
active: Strain/Sex: ALBINO/MALE, Route: ORAL, Dose: 0.018, 0.036% IN DIET FOR 90 DAYS, Tumor Site: Type of Lesion: LIVER: HEPATOMA, EAR (DUCT), INTESTINES (SMALL), Tumor Site: Type of Lesion: LIVER: HEPATOMA, EAR (DUCT), INTESTINES (SMALL) active; positive | Strain/Sex: BUFFALO/ MALE, FEMALE, Route: ORAL, Dose: 0.05% IN DIET FOR 23 WK (580 MG/RAT), Tumor Site: Type of Lesion: LIVER: HEPATOMA, EAR (DUCT): CARCINOMA active; positive | Strain/Sex: F344/MALE, Route: ORAL, Dose: 0.06% IN DIET FOR 3 WK, THEN CONTROL DIET FOR 1 WK, REPEATED 3X, Tumor Site: Type of Lesion: TESTES: MESOTHELIOMA, LIVER: HEPATOCELLULAR CARCINOMA, CHOLANGIOCARCINOMA active; positive | Strain/Sex: FEMALE, Route: ORAL, Dose: 0.03% IN DIET, Tumor Site: Type of Lesion: EYE active; positive | Strain/Sex: FEMALE, Route: ORAL, Dose: 1.62 MMOL/KG DIET FOR 8 MO, Tumor Site: Type of Lesion: MAMMARY GLAND, EAR (DUCT), INTESTINES (SMALL), Tumor Site: Type of Lesion: MAMMARY GLAND, EAR (DUCT), INTESTINES (SMALL) active; positive | Strain/Sex: HOLTZMAN/FEMALE, Route: ORAL, Dose: 1.62 MMOL/KG IN DIET, Tumor Site: Type of Lesion: MAMMARY GLAND, EAR (DUCT), INTESTINES (SMALL), Tumor Site: Type of Lesion: MAMMARY GLAND, EAR (DUCT), INTESTINES (SMALL) active; positive | Strain/Sex: HOLTZMAN/MALE, Route: ORAL, Dose: 1.62 MMOL/KG IN DIET, Tumor Site: Type of Lesion: LIVER, EAR (DUCT), INTESTINES (SMALL), Tumor Site: Type of Lesion: LIVER, EAR (DUCT), INTESTINES (SMALL) active; positive | Strain/Sex: LONG-EVANS/ MALE, FEMALE, Route: ORAL, Dose: IN DIET, Tumor Site: Type of Lesion: EAR (AUDITORY CANAL): SQUAMOUS CELL CARCINOMA active; positive | Strain/Sex: MALE, Route: ORAL, Dose: 1.62 MMOL/KG IN DIET FOR 8 MO, Tumor Site: Type of Lesion: LIVER: HEPATOMA, INTESTINES (SMALL), EAR (DUCT), Tumor Site: Type of Lesion: LIVER: HEPATOMA, INTESTINES (SMALL), EAR (DUCT) active; positive | Strain/Sex: PIEBALD/ MALE, FEMALE, Route: ORAL, Dose: 4 MG DAILY IN DIET FOR 25 WK, Tumor Site: Type of Lesion: LIVER: HEPATOMA, EAR (DUCT): CARCINOMA, INTESTINES: CARCINOMA, Tumor Site: Type of Lesion: LIVER: HEPATOMA, EAR (DUCT): CARCINOMA, INTESTINES: CARCINOMA active; positive | Strain/Sex: PIEBALD/FEMALE, Route: ORAL, Dose: 0.03% IN DIET, Tumor Site: Type of Lesion: MAMMARY GLAND: CARCINOMA active; positive | Strain/Sex: PIEBALD/MALE, Route: DERMAL, Dose: IN ACETONE, Tumor Site: Type of Lesion: LIVER: HEPATOMA, INTESTINES: CARCINOMA active; positive | Strain/Sex: SHEFFIELD/ MALE, FEMALE, Route: ORAL, Dose: 4 MG DAILY IN DIET FOR 25 WK, Tumor Site: Type of Lesion: LIVER: HEPATOMA, EAR (DUCT): CARCINOMA, INTESTINES: CARCINOMA, Tumor Site: Type of Lesion: LIVER: HEPATOMA, EAR (DUCT): CARCINOMA, INTESTINES: CARCINOMA active; positive | Strain/Sex: SHERMAN/ MALE, FEMALE, Route: ORAL, Dose: 0.03% IN DIET FOR LIFE, Tumor Site: Type of Lesion: LIVER: CARCINOMA active; positive | Strain/Sex: SPRAGUE-DAWLEY/FEMALE, Route: INTRAPERITONEAL, Dose: 1 MG/0.1 ML 3/WK FOR 4 WK (TOTAL DOSE 0.17 MMOL/RAT), Tumor Site: Type of Lesion: MAMMARY GLAND: ADENOCARCINOMA active; positive | Strain/Sex: SPRAGUE-DAWLEY/FEMALE, Route: ORAL, Dose: 300 MG/KG IN SEMI-PURIFIED OR STOCK DIET, Tumor Site: Type of Lesion: EAR (DUCT): CARCINOMA active; positive | Strain/Sex: STRAIN-CD/FEMALE, Route: ORAL, Dose: 80, 250 PPM IN DIET FOR 78 WK (LOW DOSE) OR 50 WK (HIGH DOSE), Tumor Site: Type of Lesion: LIVER: NEOPLASTIC NODULE, HEPATOCELLULAR CARCINOMA, MAMMARY GLAND: ADENOCARCINOMA active; positive | Strain/Sex: STRAIN-CD/MALE, Route: ORAL, Dose: 80, 250 PPM IN DIET FOR 78 WK (LOW DOSE) OR 50 WK (HIGH DOSE), Tumor Site: Type of Lesion: LIVER: HEPATOCELLULAR CARCINOMA active; positive | Strain/Sex: WISTAR/ MALE, FEMALE, Route: ORAL, Dose: 0.03% IN DIET FOR LIFE, Tumor Site: Type of Lesion: LIVER: CARCINOMA active; positive | Strain/Sex: WISTAR/ MALE, FEMALE, Route: ORAL, Dose: 0.07% IN DIET, Tumor Site: Type of Lesion: LIVER: HEPATOMA active; positive | Strain/Sex: WISTAR/MALE, Route: DERMAL, Dose: IN ACETONE, Tumor Site: Type of Lesion: LIVER: HEPATOMA, INTESTINES: CARCINOMA active; positive
